Assay results published in publication PMC4811503, “A method for quantification of exportin-1 (XPO1) occupancy by Selective Inhibitor of Nuclear Export (SINE) compounds” (Oncotarget, 2015).
Where “and” joins values, the source holds several entries; their conditions need not be identical. Identical values can stand only once. Like-named read-outs stand apart in the source and are kept apart here.

Legend:
[1] = system: nuclear export of the XPO1 cargo protein Rev-GFP in stably transfected U2OS cells; assay: Rev-GFP assay (nuclear retention of Rev-GFP); format: cell-based; conditions: Homo sapiens
From the text: For this assay we utilized biotinylated LMB (b-LMB) as a tool compound to quantify the amount of XPO1 bound by SINE compounds (Figure 1). b-LMB was synthesized by coupling a biotin tag to LMB. We compared the inhibition of nuclear export and the cytotoxicity of b-LMB to that of the unmodified LMB. […] We then quantified the effects of these compounds on cell death in several cancer cell lines using an MTT cytotoxicity assay (Table 2).
For the typical Rev-GFP assay, U2OS cells stably expressing Rev-GFP [42] were cultured in 96 well plates at 7,500 - 15,000 cells/well. […] After fixation cells were stained with DAPI (Invitrogen) for 10 minutes at room temperature. Cells were imaged with a Nikon fluorescent microscope at 10X magnification and intensity of the GFP and nuclear area were measured and recorded. Cells were scored as either GFP nuclear positive or negative. Number of positive cells were divided by total number of cells in order to calculate percentage of cells with nuclear GFP per well.

HCT-116 = assay: MTT cytotoxicity assay; format: cell-based; conditions: Homo sapiens
AML2 = assay: MTT cytotoxicity assay; format: cell-based
AML3 = assay: MTT cytotoxicity assay; format: cell-based
MV-4–11 = assay: MTT cytotoxicity assay; format: cell-based; conditions: Homo sapiens, MV4-11, read-out: Selinexor IC50 (μM)
Kasumi-6 = assay: MTT cytotoxicity assay; format: cell-based; conditions: read-out: Selinexor IC50 (μM)
THP-1 = assay: MTT cytotoxicity assay; format: cell-based; conditions: Homo sapiens, read-out: Selinexor IC50 (μM)
HT1080 resistant = assay: MTT cytotoxicity assay; format: cell-based; conditions: Homo sapiens, HT-1080, read-out: Selinexor IC50 (μM)
A549 = assay: MTT cytotoxicity assay; format: cell-based; conditions: Homo sapiens, read-out: Selinexor IC50 (μM)
UCH2 = assay: MTT cytotoxicity assay; format: cell-based; conditions: read-out: Selinexor IC50 (μM)
ASPS-KY = assay: MTT cytotoxicity assay; format: cell-based; conditions: read-out: Selinexor IC50 (μM)
[2] = humans; clinical PK analysis, no reference given; cited from earlier work
XPO1 = XPO1 (Homo sapiens, UniProt O14980); assay: XPO1 occupancy assay in cultured cell lines (biotinylated probe pull-down, Simple Western); format: cell-based; design: Cells were collected, washed with PBS, and lysed with RIPA Buffer; endogenous in cells; host or cells: MM.1S
Procedure: b-LMB was tested for the ability to bind XPO1 protein. First, a dose-response curve was generated by exposing MM.1S cells to increasing concentrations of b-LMB (0 – 500 nM) for 1.5 hours in culture. The cells were then collected, lysed, and a portion of the lysate (input) was reserved prior to incubating the remaining lysate with streptavidin-tagged beads overnight. After extensive washes, b-LMB bound XPO1 was eluted from the beads, and XPO1 from both input and bead eluate was detected and quantified by Simple Western on Peggy Sue. Simple Western allows for the chemiluminescent detection of proteins from small volumes of samples that are run through a matrix-filled capillary. The signal is detected by a CCD camera which generates a digital image and then reports quantitative results. […] The protein signals for XPO1 detected by Simple Western in Figure 2A were reported as mean peak areas and were used to compare levels of XPO1 present in each sample to produce a graphical representation of the ratio of free XPO1 detected at each concentration of b-LMB (Figure 2B). “Ratio of bound XPO1” is defined as the ratio of the mean peak area of b-LMB bound XPO1 detected in the eluate compared to the mean peak area of all XPO1 detected in the input lysate, while “free-fraction” refers to the amount of XPO1 not occupied by SINE compound, as described later.
The cells were then collected and processed for the XPO1 occupancy assay. […] For these assays, the “ratio of free-fraction XPO1” is calculated by dividing the mean peak areas of XPO1 occupied by b-LMB (from the eluate) by the total amount of XPO1 (from the input).
Cells were collected, washed with PBS, and lysed with RIPA Buffer (Thermo Scientific) with protease inhibitors [Complete Ultra Tablets, Mini, EDTA-free, Easy pack (Roche), PhosStop Easy (Roche)]. A portion of the lysate was reserved (input) while the rest was added to washed Dynabeads MyOne Streptavidin T1 (Invitrogen) with RIPA Buffer. Samples were incubated overnight with constant rotation at 4°C. Beads were then washed 5 times with modified RIPA (150 mM NaCl, 50 mM Tris, 1% NP-40, 0.1% Na deoxycholate, 1 mM EDTA, pH 7.8). The reserved portion of lysates (input) and the beads were each mixed with Protein Simple buffer (Protein Simple), DTT (Invitrogen), and fluorescent standards (Protein Simple), then boiled at 95°C for 10 min. Eluates and inputs were analyzed using a capillary western method (Peggy Sue; Protein Simple) with the following primary antibodies: XPO1 (Santa Cruz) and β-actin (Santa Cruz). Capillary westerns were performed by SBH Sciences (Natick, MA). Peak areas corresponding to the protein molecular weight of XPO1 and actin were compared for sample inputs, while the ratio of XPO1 peak areas in eluate to input (ratio of bound or free-fraction XPO1) versus compound concentration were used in XLFit model 205 to calculate 50% and 90% occupancy curves.

[3] = read-out: Selinexor IC50 (μM), MTT

Chain of XPO1 (O14980 whole entry): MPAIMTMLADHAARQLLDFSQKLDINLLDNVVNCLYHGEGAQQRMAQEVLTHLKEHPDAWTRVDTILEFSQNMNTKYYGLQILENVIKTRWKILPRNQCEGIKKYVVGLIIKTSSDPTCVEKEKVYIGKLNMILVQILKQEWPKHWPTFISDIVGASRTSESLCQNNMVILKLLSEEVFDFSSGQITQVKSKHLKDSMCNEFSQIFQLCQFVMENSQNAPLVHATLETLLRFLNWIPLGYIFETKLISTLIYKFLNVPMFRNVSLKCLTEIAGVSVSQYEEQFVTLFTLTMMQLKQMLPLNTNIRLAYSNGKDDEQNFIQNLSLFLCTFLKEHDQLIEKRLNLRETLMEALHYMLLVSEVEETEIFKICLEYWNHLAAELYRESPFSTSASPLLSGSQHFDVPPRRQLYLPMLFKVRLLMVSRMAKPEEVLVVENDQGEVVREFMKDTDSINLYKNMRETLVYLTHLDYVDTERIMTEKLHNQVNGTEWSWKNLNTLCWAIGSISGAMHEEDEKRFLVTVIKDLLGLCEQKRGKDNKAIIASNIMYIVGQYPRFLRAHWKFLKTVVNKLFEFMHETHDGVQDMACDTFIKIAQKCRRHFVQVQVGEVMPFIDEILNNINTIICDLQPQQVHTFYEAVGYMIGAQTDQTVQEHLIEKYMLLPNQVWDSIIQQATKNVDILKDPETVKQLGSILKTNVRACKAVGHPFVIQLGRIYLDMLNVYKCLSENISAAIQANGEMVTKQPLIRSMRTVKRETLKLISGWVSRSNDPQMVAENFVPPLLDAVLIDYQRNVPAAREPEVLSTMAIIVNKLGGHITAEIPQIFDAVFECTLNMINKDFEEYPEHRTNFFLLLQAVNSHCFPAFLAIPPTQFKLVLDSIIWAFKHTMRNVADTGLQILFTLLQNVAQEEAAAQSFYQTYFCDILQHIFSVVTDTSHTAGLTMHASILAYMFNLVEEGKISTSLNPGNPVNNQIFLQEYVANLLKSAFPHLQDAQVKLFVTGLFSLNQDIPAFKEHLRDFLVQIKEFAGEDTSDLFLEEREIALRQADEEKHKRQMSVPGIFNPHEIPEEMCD

O=C(/C=C\n1cnc(-c2cc(C(F)(F)F)cc(C(F)(F)F)c2)n1)NNc1cnccn1 [Selinexor, selinexor]
IC50 ([1]; 4 h, read-out: Rev-GFP (nM), U2OS cells stably expressing Rev-GFP, 4 hours treatment): 40 nM | IC50 ([1]; 4 h, read-out: RevGFP Assay IC50 (μM), Rev-GFP U2OS, selinexor 4 hours, 4 hours post washout): 20 nM | IC50 ([1]; read-out: Rev-GFP IC50 (μM), U2OS Rev-GFP cells): 40 nM | IC50 ([1]; read-out: RevGFP Assay IC50 (μM), Rev-GFP U2OS, selinexor 4 hours, 0 hours post washout): 10 nM | IC50 ([1]; read-out: RevGFP Assay IC50 (μM), Rev-GFP U2OS, selinexor 4 hours, 24 hours post washout): 500 nM | IC50 ([1]; read-out: RevGFP Assay IC50 (μM), Rev-GFP U2OS, selinexor 4 hours, 48 hours post washout): 1300 nM | IC50 ([1]; read-out: RevGFP Assay IC50 (μM), Rev-GFP U2OS, selinexor 4 hours, 72 hours post washout): 6800 nM | IC50 ([1]; read-out: RevGFP Assay IC50 (μM), Rev-GFP U2OS, selinexor 4 hours, 96 hours post washout): 11400 nM | IC50 (HCT-116; 72 hours, read-out: IC50): 0.05 µM | IC50 (HCT-116; [3]): 0.05 µM | IC50 (AML2; 72 hours, read-out: IC50): 0.09 µM | IC50 (AML2; [3]): 0.09 µM | IC50 (AML3; 72 hours, read-out: IC50): 0.27 µM | IC50 (AML3; [3]): 0.27 µM | IC50 (MV-4–11): 0.02 µM | IC50 (Kasumi-6): 0.53 µM | IC50 (THP-1): 1.06 µM | IC50 (HT1080 resistant): 2.4 µM | IC50 (A549): 3 µM | IC50 (UCH2): 30 µM | IC50 (ASPS-KY): > 10 µM | Tmax [2]: ~4 h | near complete plasma clearance by (time post-dose) [2]: ~24 h | 90% Occupancy selinexor (XPO1; A549): 0.56 µM | 90% Occupancy selinexor (XPO1; AML2): 0.22 µM | 90% Occupancy selinexor (XPO1; AML3): 0.46 µM | 90% Occupancy selinexor (XPO1; ASPS-KY): 0.72 µM | 90% Occupancy selinexor (XPO1; HCT-116): 0.76 µM | 90% Occupancy selinexor (XPO1; HEL): 0.31 µM | 90% Occupancy selinexor (XPO1; HT1080): 1.35 µM | 90% Occupancy selinexor (XPO1; HT1080 resistant): 1.67 µM | 90% Occupancy selinexor (XPO1; Kasumi-6): 0.57 µM | 90% Occupancy selinexor (XPO1; LS174T): 0.38 µM | 90% Occupancy selinexor (XPO1; MM.1S): 0.48 µM | Avg 90% Occupancy (μM) (XPO1; MM.1S cells, SINE compound 1 hour, then 1 nM b-LMB […]): 0.52 +/− 0.05 (n = 2) μM | 90% Occupancy (XPO1; MM.1S cells, followed by 0.1 μM KPT-9058 as probe): 0.1 µM and 0.10 µM | 90% Occupancy selinexor (XPO1; MV-4–11): 0.61 µM | 90% of XPO1 occupancy (XPO1; Rev-GFP U2OS cells, selinexor 1 hour, then 1 nM b-LMB […]): 0.48 µM | 90% Occupancy (XPO1; Rev-GFP U2OS, selinexor 4 hours, 0 hours post washout, 1 nM b-LMB): 0.16 µM | 90% Occupancy (XPO1; Rev-GFP U2OS, selinexor 4 hours, 4 hours post washout, 1 nM b-LMB): 2.87 µM | 90% Occupancy (XPO1; Rev-GFP U2OS, selinexor 4 hours, 24 hours post washout, 1 nM b-LMB): > 10 µM | 90% Occupancy (XPO1; Rev-GFP U2OS, selinexor 4 hours, 48 hours post washout, 1 nM b-LMB): > 10 µM | 90% Occupancy (XPO1; Rev-GFP U2OS, selinexor 4 hours, 72 hours post washout, 1 nM b-LMB): > 10 µM | 90% Occupancy (XPO1; Rev-GFP U2OS, selinexor 4 hours, 96 hours post washout, 1 nM b-LMB): > 10 µM | 90% Occupancy selinexor (XPO1; THP-1): 0.94 µM | 90% Occupancy selinexor (XPO1; UCH1): 0.65 µM | 90% Occupancy selinexor (XPO1; UCH2): 0.89 µM
